Data from patent publication US9346741B2, “Polyamine transport selective therapeutic agents with enhanced stability” (University of Central Florida Research Foundation, Inc., priority 2012, dated 2016).
Entries after “also recorded” stand apart in the source; their conditions may differ. Like-named read-outs stand apart in the source and are kept apart here.

Key:
MALME-3 cells = assay: Cytotoxicity IC50 determination (MTS) in MALME-3 cells; format: cell-based, human; conditions: for IC50: 96 h at 37° C., 1 mM AG, 10% FBS
Description: (§1) Armed with this insight, compounds 5a-8b were evaluated in the MALME-3M (melanoma) cell line and its non-cancerous counterpart MALME-3 obtained originally from the same patient. These matched cell lines provided a method to assess PTS selectivity for the cancer line (MALME-3M) over the non-cancerous cell line (MALME-3).
(§2) CHO and CHO-MG cells were grown in RPMI 1640 medium supplemented with 10% fetal calf serum and 1% penicillin/streptomycin. Note: the media must contain L-proline (2 μg/mL) for proper growth of the CHO-MG cells. MALME-3M cells were grown in RPMI 1640 medium supplemented with 10% FBS and 1% penicillin/streptomycin. All cells were grown at 37° C. under a humidified 5% CO2 atmosphere Aminoguanidine (1 mM) was added to the growth medium to prevent oxidation of the drugs by the enzyme (bovine serum amine oxidase) present in calf serum. Cells in early to mid-log phase were used.
(§3) Cell growth was assayed in sterile 96-well microtiter plates (Costar 3599, Corning, N.Y., USA). CHO and CHO-MG* cells were plated at 10,000 cells/mL. MALME-3M and MALME-3 cells were plated at 5,000 cells/mL. Drug solutions (10 μL per well) of appropriate concentration were added after an overnight incubation for each CHO cell line (90 μL). 48 h MALME-3M experiments were conducted using 10% Nu-Serum IV, and 96 h MALME-3M and MALME-3 experiments were conducted using 10% FBS. After exposure to the drug for 48 h (CHO, CHO-MG*, and MALME-3M) or 96 h (MALME-3M and MALME-3), cell growth was determined by measuring formazan
(§4) formation from 3-(4,5-dimethylthiazol-2-yl)-5-(3-carboxymethoxyphenyl)-2-(4-sulphenyl)-2H-tetrazolium) inner salt (MTS) using a SynergyMx Biotek microplate reader for absorbance ([…]) measurements.^24

MALME-3M cells = assay: Cytotoxicity IC50 determination (MTS) in MALME-3M cells; format: cell-based, human
Description: as §1, with “(MALME-3). […]” for “(MALME-3).”
as §2, §3, §4

[1] = system: polyamine transport system (PTS) in L1210 cells; conditions: cited from earlier work
CHO-MG* cells = assay: Cytotoxicity IC50 determination (MTS) in polyamine-transport-deficient CHO-MG* cells; format: cell-based, Chinese hamster; conditions: 48 h at 37° C.
Source text: (§5) CHO cells were chosen along with a mutant cell line (CHO-MG*) to comment on how the synthetic conjugates gain access to the cells.^2c-e, 6 As discussed earlier, the CHO-MG cell line is polyamine-transport deficient and represents a model for alternative modes of entry (other than PTS) including passive diffusion or use of another transporter. The CHO cell line on the other hand, represents cells with high polyamine transport activity.^7, 10c A comparison of toxicity in these two CHO cell lines allowed for a screen that would detect selective use of the polyamine transporter. This is seen where high utilization of the PTS would be very toxic to CHO cells, however, there would not be the same level of toxicity found in CHO-MG cells.^2c-e, 6 Ultimately, a CHO-MG/CHO IC50 can be determined where a high ratio would be achieved for highly PTS selective compounds.
(§6) CHO and CHO-MG cells were grown in RPMI 1640 medium supplemented with 10% fetal calf serum and 1% penicillin/streptomycin. Note: the media must contain L-proline (2 μg/mL) for proper growth of the CHO-MG cells. MALME-3M cells were grown in RPMI 1640 medium supplemented with 10% FBS and 1% penicillin/streptomycin. […] Cells in early to mid-log phase were used.
as §3, §4

[2] = system: MALME-3M (melanoma) vs MALME-3 (normal) cells; assay: MALME-3/MALME-3M IC50 ratio, a measure of selectivity; format: cell-based, human; conditions: 96 h; 1 mM AG
Source text: These matched cell lines provided a method to assess PTS selectivity for the cancer line (MALME-3M) over the non-cancerous cell line (MALME-3).

CHO cells = assay: in vitro; format: cell-based; conditions: for IC50: 48 h at 37° C.
Source text: as §5, §6, §3, §4

[3] = system: polyamine transport system (PTS), CHO-MG* vs CHO cells; assay: CHO-MG*/CHO IC50 ratio, a measure of PTS selectivity; format: cell-based, Chinese hamster; conditions: 48 h; for IC50 ratio w/AG (CHO-MG*/CHO): with 1 mM AG; for IC50 ratio w/o AG (CHO-MG*/CHO): without AG
Source text: Compounds with high CHO-MG/CHO IC50 ratios are considered PTS selective.
as §5

[4] = 1 mM AG 24 h prior to drug addition, read-out: CHO-MG* IC50 (μM) w/AG
[5] = without AG, read-out: CHO-MG* IC50 (μM) w/o AG
[6] = 1 mM AG 24 h prior to drug addition, read-out: CHO IC50 (μM) w/AG
[7] = without AG, read-out: CHO IC50 (μM) w/o AG
[8] = 48 h at 37° C., 1 mM AG, 10% Nu-Serum IV, read-out: MALME-3M IC50 (μM) w/ AG
[9] = 48 h at 37° C., without AG, 10% Nu-Serum IV, read-out: MALME-3M IC50 (μM) w/o AG
[10] = 96 h at 37° C., 1 mM AG, 10% FBS, read-out: MALME-3M IC50

With `N=C(N)NN` [AG, aminoguanidine, reference compound] the “toxicity of 1 mM AG in MALME-3 cells” value (MALME-3 cells; 1 mM) was “^b1 mM AG was determined to be non-toxic and incubated with MALME-3M and MALME-3 cells for 24 h prior to drug addition” and the “toxicity of 1 mM AG in MALME-3M cells” value (MALME-3M cells; 1 mM) was “^b1 mM AG was determined to be non-toxic and incubated with MALME-3M and MALME-3 cells for 24 h prior to drug addition; also recorded: ^b1 mM AG was determined to be non-toxic and incubated with MALME-3M cells for 24 h prior to drug addition”.
For `NCCCCNCCCN` [Spermidine, spermidine, reference compound], the Ki ([1]; read-out: Ki in L1210 cells) is given as 2460 nM, the “non-toxic concentration in MALME-3” value (MALME-3 cells; spermidine alone) is given as “up to 100 μM” and the “non-toxic concentration in MALME-3M” value (MALME-3M cells; spermidine alone) is given as “up to 100 μM”.
In the case of `CNCCCCNCCCCNCc1c2ccccc2cc2ccccc12` [Compound 5b], the IC50 (CHO-MG* cells; [4]) is reported as 10.7 µM, the IC50 (CHO-MG* cells; [5]) is reported as 11.3 µM and the “MALME-3/MALME-3M IC50 ratio” value [2] is reported as 1.4. The IC50 (CHO cells; [6]) was 2.8 µM, the IC50 (CHO cells; [7]) was 2.1 µM and the “IC50 ratio w/AG (CHO-MG*/CHO)” value [3] was 3.8. For the same compound, the “IC50 ratio w/o AG (CHO-MG*/CHO)” value [3] was 5.4, the IC50 (MALME-3 cells) was 620 nM and the IC50 (MALME-3M cells; [8]) was 0.6 µM. For the same compound, the IC50 (MALME-3M cells; [9]) was 0.62 µM and the IC50 (MALME-3M cells; [10]) was 0.45 µM.
For `NCCCCNCCCCNCc1ccc(CNCCCCNCCCCN)c2ccccc12` [Compound 7a], the Ki ([1]; read-out: Ki in L1210 cells) is listed as 170 nM, the IC50 (CHO-MG* cells; [4]) is listed as over 100 µM and the IC50 (CHO-MG* cells; [5]) is listed as 52.1 µM. The “MALME-3/MALME-3M IC50 ratio” value [2] was 71, the IC50 (CHO cells; [6]) was 0.022 µM and the IC50 (CHO cells; [7]) was 5.5 µM. The “IC50 ratio w/AG (CHO-MG*/CHO)” value [3] was over 4545, the “IC50 ratio w/o AG (CHO-MG*/CHO)” value [3] was 9.5 and the IC50 (MALME-3 cells) was 1270 nM. For the same compound, the IC50 (MALME-3M cells; [8]) was 0.043 µM, the IC50 (MALME-3M cells; [9]) was 0.43 µM and the IC50 (MALME-3M cells; [10]) was 0.018 µM.
In the case of `NCCCCNCCCCNCc1c2ccccc2c(CNCCCCNCCCCN)c2ccccc12` [Compound 6a], the Ki ([1]; read-out: Ki in L1210 cells) is given as 390 nM, the IC50 (CHO-MG* cells; [4]) is given as over 100 µM and the IC50 (CHO-MG* cells; [5]) is given as 8.4 µM. The “MALME-3/MALME-3M IC50 ratio” value [2] was 41, the IC50 (CHO cells; [6]) was 0.028 µM and the IC50 (CHO cells; [7]) was 4 µM. The “IC50 ratio w/AG (CHO-MG*/CHO)” value [3] was over 3571, the “IC50 ratio w/o AG (CHO-MG*/CHO)” value [3] was 2.1 and the IC50 (MALME-3 cells) was 690 nM. It also gave an IC50 (MALME-3M cells; [8]) of 0.088 µM, an IC50 (MALME-3M cells; [9]) of 0.29 µM and an IC50 (MALME-3M cells; [10]) of 0.017 µM.
In the case of `NCCCCNCCCCNCc1cc(CNCCCCNCCCCN)cc(CNCCCCNCCCCN)c1` [Compound 32, reference compound], the Ki ([1]; unit inferred, read-out: Ki values in L1210 cells) is listed as 520 ± 110 nM, the IC50 (CHO-MG* cells; Cricetulus griseus, CHO-MG, Table 4, 1 mM AG 24 h prior to drug addition, read-out: CHO-MG* IC50) is listed as over 100 µM and the “fold less toxic than 34a in the CHO cell line” value (CHO cells; CHO, versus 34a) is listed as over 3500 fold. The IC50 (CHO cells; Cricetulus griseus, CHO, Table 4, 1 mM AG 24 h prior to drug addition, read-out: CHO IC50) was over 100 µM, the “MTD (μM) in CHO (maximum tolerated dose)” value (CHO cells; hamster) was 80 µM and the “IC50 ratio w/AG (CHO-MG*/CHO)” value [3] was 1.
